Measured values from patent US20230240290A1, “USE OF (Z)-3-HEXENYL ESTERS AND METHOD FOR PROTECTING PLANTS AGAINST PESTS” (UNIVERSITAT POLITÈCNICA DE VALÈNCIA, priority 2020, published 2023).

Legend:
Tuta absoluta = assay: Laying of Tuta absoluta on exposed tomato plants; type: in vivo; conditions: T. absoluta, 72 hours; permanent exposure
Experimental: It was also studied whether the defensive activation induced by exposure to (Z)-3-hexenyl propanoate could influence the development of two highly important phytophages in tomato cultivation, the red spider, T. urticae, and the lepidoptera T. absoluta. The individuals used in these experiments came from the captive breeding of these species that are kept in the IVIA described above. The exposure time of the plant to the volatile was tested on both phytophages in two different ways, one where the plant was only exposed to the volatile for 24 hours and then the herbivore to be assayed was immediately released, and the other where the volatile was permanently exposed throughout the experiment.
For this purpose, two climatic chambers were used under the same environmental conditions [25±2° C., 65±5% HR and 14:10 h (L:D) photoperiod], wherein, to avoid interference between the volatiles, one was assigned to the (Z)-3-hexenyl propanoate treatments and one to the control treatment. […]
Two consecutive experiments were performed to assess the effect of exposure to both volatiles on T. absoluta. […] The laying of T. absoluta was assessed in 8 tomato plants (cv. Moneymaker) per treatment. […] After this time, T. absoluta adults were removed, and the number of eggs was counted.

Nesidiocoris tenuis = conditions: in vivo
Experimental: To know the behavior of the dispensers loaded with (Z)-3-hexenyl propionate under real cultivation conditions, four commercial greenhouses for tomato cv Raf located in Xilxes (Castellón province), with a history of problems with T. absoluta contamination at the end of winter, were selected. An experimental design of randomized blocks was carried out where each greenhouse was considered a block with two treatments per block and 4 repetitions per treatment. […]
Twenty plants randomly chosen by repetition were sampled weekly for 11 weeks, beginning 30 Jan. […] First, the number of leaflets infested by T. absoluta per plant was counted. Then the number of N. tenuis (adults and nymphs) throughout the apical third of each plant (leaves, flowers and shoots) was counted. Following the methodology described above, 6 samples were taken from the apical part of each plant per repetition, and these samples were immediately introduced into liquid nitrogen to quantify the expression of the PR1 and PIN2 genes (described in Example 1 and Example 2). The expression of these genes was quantified one day before, 4, and 8 weeks after hanging the dispensers in the greenhouses.

## CC/C=C\CCOC(=O)CC [(Z)-3-hexenyl propanoate]
Tuta absoluta
  Reduction in laying compared to the control: 67.2±15.0%
Nesidiocoris tenuis
  Population of the plant bug N. tenuis, treatment vs control: remained the same
